According to ChEMBL document CHEMBL1138294, “Design and development of water-soluble curcumin conjugates as potential anticancer agents” (J Med Chem, 2007):

Key:
[1] = test system: PC-3; test: Cytotoxicity against human PC3 cells at 10 uM; assay type: functional
[2] = test system: PC-3; test: Cytotoxicity against human PC3 cells at 20 uM; assay type: functional
[3] = test system: PC-3; test: Cytotoxicity against human PC3 cells; assay type: functional, cell-based
[4] = test system: MIA PaCa-2; test: Cytotoxicity against human MIA PaCa2 cells; assay type: functional, cell-based
[5] = test system: LS174T; test: Cytotoxicity against human LS174T cells; assay type: functional, cell-based
[6] = test system: BXPC-3; test: Cytotoxicity against human BxPC3 cells; assay type: functional, cell-based

Question: `COc1cc(/C=C/C(=O)CC(=O)/C=C/c2ccc(O)c(OC)c2)ccc1O` [CURCUMIN] was tested. Which Activity [1] did it give?
Answer: Its Activity is 65%.

Question: What about the Activity [2] of the same compound?
Answer: Its Activity is 90%.

Question: And the IC50 [3]?
Answer: Its IC50 is 12 µM.

Question: And the IC50 [4]?
Answer: The IC50 was 9 µM.

Question: And the IC50 [5]?
Answer: Its IC50 is 6.5 µM.

Question: What about the IC50 [6] of the same compound?
Answer: Its IC50 is 2.9 µM.
